In patent US20190105264A1, “NON-INVASIVE OCULAR DRUG DELIVERY DEVICES” (Aciont Inc., priority 2017, published 2019):

Key:
treated eyes (right eye) = details: rabbit, in vivo
Procedure: Young adult New Zealand White rabbits each weighing 3-4 kg were obtained from Western Oregon Rabbit Co. (Philomath, Oreg.). […] All animals were acclimated and observed for health issues for at least two weeks prior to being used in the study.
(§1) For the ocular toxicity study, there were four groups. […] The total exposure was 12 doses over the period of 12 weeks. Clinical observations were performed on weekdays, and before and after each dosing. Following the final observations (i.e., one week after the last dose), the rabbits were sacrificed and the eyes were processed for histological evaluation.
One drop of sterile proparacaine hydrochloride (a local anesthetic) was put on the eye (to be treated) 5 minutes before dose administration. […] The position of the device was checked to ensure that the active agent matrix was in immediate contact with the white part of the eye but not the cornea. Digital timers were used for accurate application times (i.e., 5, 10, or 20 minutes). After the given application duration, the applicator was carefully removed from the eye.
All animals (both left and right eyes) were examined by indirect ophthalmoscopy of the cornea, conjunctiva, anterior chamber, vitreous, posterior chamber, and sclera. […] Observations on the anterior and posterior segments of the eye were made, graded, and recorded. […]

[1] = Ocular toxicity study: body weight; details: 20 min, 12 weekly doses
Procedure: as §1
Body weights of the animal were taken upon arrival, and then monthly. All animals (both left and right eyes) were examined by indirect ophthalmoscopy of the cornea, conjunctiva, anterior chamber, vitreous, posterior chamber, and sclera. One to two drops each of phenylephrine hydrochloride and cyclopentolate hydrochloride were used as mydriatics. Observations on the anterior and posterior segments of the eye were made, graded, and recorded. A modified McDonald-Shadduck scale was used for grading eye irritation and ocular toxicity.

In the case of C[C@@H]1C[C@H]2[C@@H]3CCC4=CC(=O)C=C[C@]4(C)[C@@]3(F)[C@@H](O)C[C@]2(C)[C@@]1(O)C(=O)COP(=O)(O)O [DSP, dexamethasone sodium phosphate], the “Typical conjunctival injection scores immediately after treatment” value (treated eyes (right eye); New Zealand White, 12 weeks) is reported as 1 or <1, the “Ocular findings in treated eyes (conjunctival injection, discharge, corneal haze)” value (treated eyes (right eye)) is reported as “transient and mild in nature” and the “Body Weight” value ([1]; 15% DSP) is reported as 8% loss. For the same compound, the “Body Weight” value ([1]; 25% DSP) was 13% loss.
